Data taken from ChEMBL document CHEMBL1201862, “PubChem BioAssay data set” (2004).
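Assay format: 96-well plates, 48-hour exposure. GI50 marks 50% less growth.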 Activity calls are given as the source filed them. Cut-off read from the data, not from the text of the source: active = GI50 up to about 1.1 µM and inactive = higher.

Assays:
Test in all cases: inhibition of tumour cell growth, NCI panel, 48 h
SNB-75 = test system: SNB-75
SW-620 = test system: SW-620
MDA-N = test system: MDA-N
SR = test system: SR
NCI-H226 = test system: NCI-H226
M14 = test system: M14
IGROV-1 = test system: IGROV-1
LOX IMVI = test system: LOX IMVI
PC-3 = test system: PC-3
OVCAR-5 = test system: OVCAR-5
A498 = test system: A498
SF-539 = test system: SF-539
786-0 = test system: 786-0
SF-295 = test system: SF-295
RXF 393 = test system: RXF 393
UACC-62 = test system: UACC-62
UO-31 = test system: UO-31
HOP-62 = test system: HOP-62
HOP-92 = test system: HOP-92
ACHN = test system: ACHN

Measured: GI50

O=C(NNC(=O)c1ccccc1Cl)c1ccccc1O
inactive: SNB-75 20.5 µM | SW-620 71.6 µM | MDA-N > 100 µM | SR 29.9 µM | NCI-H226 3.42 µM | M14 39.7 µM | IGROV-1 3.84 µM | LOX IMVI 38.1 µM | PC-3 40.4 µM | OVCAR-5 > 100 µM | A498 > 100 µM | SF-539 > 100 µM | 786-0 87.1 µM | SF-295 32.7 µM | RXF 393 > 100 µM | UACC-62 35.7 µM | UO-31 27.7 µM | HOP-62 31.8 µM

COc1cc2oc(-c3ccc4c(c3)OCO4)c(OC)c(=O)c2c(OC)c1OC
inactive: SNB-75 27.2 µM | SW-620 > 100 µM | HOP-92 1.35 µM | MDA-N > 100 µM | NCI-H226 > 100 µM | M14 > 100 µM | IGROV-1 67.9 µM | LOX IMVI > 100 µM | PC-3 > 100 µM | OVCAR-5 > 100 µM | A498 33.7 µM | SF-539 45.2 µM | ACHN 59.4 µM | 786-0 94 µM | SF-295 > 100 µM | RXF 393 32.7 µM | UACC-62 > 100 µM | UO-31 > 100 µM | HOP-62 27.4 µM

COC(=O)c1c2c(cc3c1CC1(Cc4cc5c(cc4C1)CCC5)C3)CCC2
inactive: SNB-75 > 100 µM | SW-620 > 100 µM | HOP-92 > 100 µM | MDA-N > 100 µM | SR > 100 µM | M14 > 100 µM | IGROV-1 > 100 µM | LOX IMVI > 100 µM | PC-3 > 100 µM | OVCAR-5 > 100 µM | A498 > 100 µM | SF-539 > 100 µM | ACHN > 100 µM | 786-0 > 100 µM | SF-295 > 100 µM | RXF 393 > 100 µM | UO-31 > 100 µM | HOP-62 > 100 µM

COc1cc2c3c([nH]c2c(OC)c1OC)CCN(Cc1ccccc1)C3
inactive: SNB-75 42.1 µM | SW-620 1.95 µM | HOP-92 6.27 µM | MDA-N 16.9 µM | NCI-H226 20.9 µM | M14 14.1 µM | IGROV-1 57.7 µM | LOX IMVI 16.3 µM | PC-3 55.1 µM | OVCAR-5 23.8 µM | A498 22.3 µM | SF-539 17.7 µM | ACHN 47.8 µM | 786-0 22.3 µM | SF-295 30.8 µM | RXF 393 > 100 µM | UACC-62 32.3 µM | HOP-62 93.5 µM

N#Cc1ncn(CCO)c1N
inactive: SNB-75 > 100 µM | SW-620 > 100 µM | MDA-N > 100 µM | SR > 100 µM | NCI-H226 > 100 µM | M14 > 100 µM | IGROV-1 > 100 µM | LOX IMVI > 100 µM | PC-3 > 100 µM | OVCAR-5 > 100 µM | A498 > 100 µM | SF-539 > 100 µM | ACHN > 100 µM | 786-0 > 100 µM | SF-295 > 100 µM | UACC-62 > 100 µM | UO-31 > 100 µM | HOP-62 > 100 µM

NC(C(F)(F)F)(C(F)(F)F)P(=O)(c1ccccc1)c1ccccc1
inactive: SNB-75 > 100 µM | SW-620 > 100 µM | HOP-92 > 100 µM | MDA-N > 100 µM | SR > 100 µM | NCI-H226 > 100 µM | M14 > 100 µM | IGROV-1 > 100 µM | LOX IMVI > 100 µM | PC-3 > 100 µM | OVCAR-5 > 100 µM | SF-539 > 100 µM | ACHN > 100 µM | 786-0 > 100 µM | SF-295 > 100 µM | RXF 393 > 100 µM | UACC-62 > 100 µM | UO-31 > 100 µM | HOP-62 > 100 µM

COc1ccc2c(c1)C1Oc3ccccc3CC1CO2 (centres undefined)
inactive: SNB-75 28.4 µM | SW-620 63.1 µM | HOP-92 25.2 µM | MDA-N 37.6 µM | NCI-H226 > 100 µM | M14 75.3 µM | IGROV-1 > 100 µM | LOX IMVI 47.2 µM | PC-3 46.1 µM | OVCAR-5 > 100 µM | A498 34.4 µM | SF-539 > 100 µM | ACHN 60.1 µM | 786-0 47.4 µM | SF-295 76.4 µM | RXF 393 24.9 µM | UACC-62 98.2 µM | UO-31 22.3 µM | HOP-62 > 100 µM
